ChEMBL document CHEMBL5537161, “Structure-Guided Design, Synthesis, and Antivirulence Assessment of Covalent Staphylococcus aureus Sortase A Inhibitors” (J Med Chem, 2024)
Converted amounts (≈) assume the structure as drawn. The source made the active and inactive calls. The rule behind the calls is not given here.

Experiments:
Sortase A [1] = biological target: T1, Sortase A (Staphylococcus aureus, UniProt Q9S446, N24DEL); experiment: Inhibition of Staphylococcus aureus sortase A N24 deletion mutant using Abz-LPATG-Dnp as substrate preincubated for 20 mins followed by substrate addition by FRET assay
Staphylococcus aureus [2] = experiment: Bactericidal activity against Staphylococcus aureus Newman assessed as reduction in bacterial growth incubated for 16 to 18 hrs; assay type: functional; conditions: time 16-18 hrs
Sortase A [3] = biological target: T1, Sortase A; experiment: Inhibition of Staphylococcus aureus Sortase A N24 deletion mutant transpeptidation using IsdA64-323 as substrate preincubated for 20 mins followed by substrate addition and measured after 1.5 hrs by SDS-PAGE analysis
Staphylococcus aureus [4] = experiment: Inhibition of Staphylococcus aureus USA300 biofilm formation incubated for 14 hrs by Crystal violet staining based assay; assay type: functional, organism-based; conditions: dose 12.5-100 µM
Staphylococcus aureus [5] = experiment: Inhibition of Staphylococcus aureus Newman biofilm formation incubated for 14 hrs by Crystal violet staining based assay; assay type: functional, organism-based; conditions: dose 12.5-100 µM
[6] = Toxicity in Galleria mellonella larvae assessed as change in appearance at 60 mg/kg measured after 120 hrs; assay type: organism-based; conditions: in vivo
Staphylococcus aureus [7] = experiment: Antibacterial activity against Staphylococcus aureus USA300 infected in Galleria mellonella assessed as increase in larvae survival at 30 mg/kg measured every 24 hrs for 5 days; assay type: functional; conditions: time 5 day
[8] = Toxicity in Galleria mellonella assessed as change in color at 60 mg/kg measured after 120 hrs; assay type: organism-based; conditions: in vivo
Staphylococcus aureus [9] = experiment: Antivirulence activity against Staphylococcus aureus Newman assessed as reduction in abundance of anchored SpA in bacterial envelope by Western blotting analysis; assay type: functional, organism-based; conditions: dose 6.25-100 µM
Staphylococcus aureus [10] = experiment: Antibacterial activity against Staphylococcus aureus USA300 infected in Galleria mellonella assessed as reduction in melanization at 200 uM pretreated with compound followed by larvae infection measured after 24 hrs; assay type: functional, organism-based
Staphylococcus aureus [11] = experiment: Antibacterial activity against Staphylococcus aureus Newman infected in Galleria mellonella assessed as increase in larvae survival at 30 mg/kg measured every 24 hrs for 5 days; assay type: functional; conditions: time 5 day
Streptococcus pyogenes [12] = experiment: Inhibition of Streptococcus pyogenes Sortase A N81 deletion mutant transpeptidation assessed as thermal stabilization by measuring change in melting temperature at 80 uM incubated for 15 mins by Nano-DSF assay
[13] = Inhibition of Streptococcus pyogenes Sortase A N81 deletion mutant transpeptidation using IsdA64-323 as substrate preincubated for 20 mins followed by substrate addition and measured after 1.5 hrs by SDS-PAGE analysis
Staphylococcus aureus [14] = experiment: Antibacterial activity against Staphylococcus aureus Newman assessed as reduction in bacterial growth at 100 uM incubated for 14 hrs by microplate reader assay; assay type: functional, organism-based
Procathepsin L = Procathepsin L (Homo sapiens, UniProt P07711); experiment: Inhibition of cathepsin L (unknown origin) at 2 uM using Cbz-Phe-Arg-AMC as substrate preincubated for 5 mins followed by substrate addition by fluorescence based assay
Staphylococcus aureus [15] = experiment: Antibacterial activity against Staphylococcus aureus Newman infected in Galleria mellonella assessed as reduction in melanization at 200 uM pretreated with compound followed by larvae infection measured after 24 hrs; assay type: functional, organism-based
Staphylococcus aureus [16] = experiment: Antivirulence activity against Staphylococcus aureus Newman assessed as reduction in abundance of Sbi at 6.25 to 100 uM by Western blotting analysis; assay type: functional, organism-based; conditions: dose 6.25-100 µM
[17] = tested on: Sortase A (Staphylococcus aureus), Q9S446 [UNDEFINED MUTATION]; experiment: Irreversible inhibition of Staphylococcus aureus sortase A N24 deletion mutant preincubated with compound for 1 to 60 mins followed by substrate addition by FRET based assay; conditions: time 1-60 min, TDE = time-dependent effect
[18] = tested on: Sortase A (Staphylococcus aureus), Q9S446 [UNDEFINED MUTATION]; experiment: Inhibition of Staphylococcus aureus Sortase A N24 deletion mutant transpeptidation assessed as thermal stabilization by measuring change in melting temperature at 80 uM incubated for 15 mins by Nano-DSF assay
[19] = Toxicity in Galleria mellonella larvae assessed as effect on survival at 60 mg/kg measured after 120 hrs; assay type: organism-based; conditions: in vivo
Cathepsin B = Cathepsin B (Homo sapiens, UniProt P07858); experiment: Inhibition of cathepsin B (unknown origin) at 2 uM using Cbz-Phe-Arg-AMC as substrate preincubated for 5 mins followed by substrate addition by fluorescence based assay
Staphylococcus aureus [20] = experiment: Antibacterial activity against Staphylococcus aureus USA300 assessed as reduction in bacterial growth at 100 uM incubated for 14 hrs by microplate reader assay; assay type: functional, organism-based
Streptococcus pyogenes [21] = experiment: Irreversible inhibition of Streptococcus pyogenes Sortase A N81 deletion mutant preincubated with compound for 1 to 60 mins followed by substrate addition by FRET based assay; conditions: time 1-60 min, TDE = time-dependent effect

Sequence of Procathepsin L (P07711 114-333 limits assumed): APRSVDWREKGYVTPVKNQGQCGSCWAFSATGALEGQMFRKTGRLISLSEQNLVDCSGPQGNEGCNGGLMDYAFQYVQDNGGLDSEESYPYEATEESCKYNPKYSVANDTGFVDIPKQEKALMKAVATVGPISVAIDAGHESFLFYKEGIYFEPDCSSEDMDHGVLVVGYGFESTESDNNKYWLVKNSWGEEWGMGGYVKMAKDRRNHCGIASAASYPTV

In the case of `O=C1NC(=O)C(=C/C=C/c2ccc(OCc3ccc(Cl)cc3)cc2)C(=O)N1`, the IC50 (Sortase A [1]) is reported as 2500 nM and the MIC (Staphylococcus aureus [2]) is reported as > 128 µg/mL.
With `CC(=O)Oc1ccc(COc2ccc(/C=C/C=C3C(=O)NC(=O)NC3=O)cc2)cc1` the IC50 (Sortase A [3]) was 16100 nM, the IC50 (Sortase A [1]) was 800 nM and the MIC (Staphylococcus aureus [2]) was > 128 µg/mL.
Work on `O=C1NC(=O)C(=C/C=C/c2ccc(Cl)c(Cl)c2)C(=O)N1` yielded an IC50 (Sortase A [1]) of 1000 nM and an MIC (Staphylococcus aureus [2]) of 32 µg/mL (≈ 103 µM).
With `O=C1NC(=O)C(=C/C=C/c2ccc(OCc3ccc(C(F)(F)F)cc3)cc2)C(=O)N1` the IC50 (Sortase A [1]) was 6500 nM and the MIC (Staphylococcus aureus [2]) was > 128 µg/mL.
With `N#Cc1ccc(COc2ccc(/C=C/C=C3C(=O)NC(=O)NC3=O)cc2)cc1` the IC50 (Sortase A [1]) was 700 nM and the MIC (Staphylococcus aureus [2]) was > 128 µg/mL.
In the case of `CCCCc1ccc(COc2ccc(/C=C/C=C3C(=O)NC(=O)NC3=O)cc2)cc1`, the IC50 (Sortase A [1]) is reported as > 50000 nM and the MIC (Staphylococcus aureus [2]) is reported as > 128 µg/mL.
In the case of `O=C1NC(=O)C(=C/C=C/c2ccc(OCC(=O)c3ccco3)cc2)C(=O)N1`, the IC50 (Sortase A [3]) is reported as 24600 nM, the IC50 (Sortase A [1]) is reported as 800 nM and the MIC (Staphylococcus aureus [2]) is reported as > 128 µg/mL.
In the case of `O=C1NC(=O)C(=C/C=C/c2cccc(Cl)c2)C(=O)N1`, the IC50 (Sortase A [1]) is reported as 1000 nM and the MIC (Staphylococcus aureus [2]) is reported as 64 µg/mL (≈ 231 µM).
With `O=C1NC(=O)C(=C/C=C/c2cc(Cl)cc(Cl)c2)C(=O)N1` the IC50 (Sortase A [1]) was 2000 nM and the MIC (Staphylococcus aureus [2]) was 64 µg/mL (≈ 206 µM).
With `COC(=O)c1ccc(COc2ccc(/C=C/C=C3C(=O)NC(=O)NC3=O)cc2)cc1` the IC50 (Sortase A [1]) was > 50000 nM and the MIC (Staphylococcus aureus [2]) was > 128 µg/mL.
In the case of `CC(=O)Oc1ccc(/C=C/C=C2C(=O)NC(=O)NC2=O)cc1`, the IC50 (Sortase A [1]) is reported as 1800 nM and the MIC (Staphylococcus aureus [2]) is reported as > 128 µg/mL.
With `O=C1NC(=O)C(=CNc2ccc(Br)cc2)C(=O)N1` the IC50 (Sortase A [1]) was > 50000 nM and the MIC (Staphylococcus aureus [2]) was > 128 µg/mL.
In the case of `COC(=O)COc1ccc(/C=C/C=C2C(=O)NC(=O)NC2=O)cc1`, the IC50 (Sortase A [1]) is reported as 1000 nM and the MIC (Staphylococcus aureus [2]) is reported as > 128 µg/mL.
With `O=C1NC(=O)C(=C/C=C/c2ccc(OCc3ccccc3)cc2)C(=O)N1` the IC50 (Sortase A [3]) was 8900 nM, the IC50 (Sortase A [1]) was 500 nM and the MIC (Staphylococcus aureus [2]) was > 128 µg/mL.
With `O=C1NC(=O)C(=C/C=C/c2ccc(OCc3ccsc3)cc2)C(=O)N1` the IC50 (Sortase A [1]) was 700 nM and the MIC (Staphylococcus aureus [2]) was > 128 µg/mL.
In the case of `CCCOc1ccc(/C=C/C=C2C(=O)NC(=O)NC2=O)cc1`, the IC50 (Sortase A [3]) is reported as 8100 nM, the IC50 (Sortase A [1]) is reported as 700 nM and the MIC (Staphylococcus aureus [2]) is reported as > 128 µg/mL.
`CSCC[C@H](NC(=O)OCc1ccccc1)C(=O)Oc1ccc(/C=C/C=C2C(=O)NC(=O)NC2=O)cc1` showed an IC50 (Sortase A [1]) of 6900 nM and an MIC (Staphylococcus aureus [2]) of 128 µg/mL (≈ 244 µM).
Work on `O=C1NC(=O)C(=C/C=C/c2ccc(C(F)(F)F)cc2)C(=O)N1` yielded an IC50 (Sortase A [1]) of 1400 nM and an MIC (Staphylococcus aureus [2]) of 64 µg/mL (≈ 206 µM).
In the case of `O=C1NC(=O)C(=C/C=C/c2ccc(OCc3ccc([N+](=O)[O-])cc3)cc2)C(=O)N1`, the IC50 (Sortase A [1]) is reported as 1300 nM and the MIC (Staphylococcus aureus [2]) is reported as > 128 µg/mL.
For `NC(=O)COc1ccc(/C=C/C=C2C(=O)NC(=O)NC2=O)cc1`, the IC50 (Sortase A [1]) was 900 nM and the MIC (Staphylococcus aureus [2]) was > 128 µg/mL.
Work on `O=C1NC(=O)C(=C/C=C/c2ccc([N+](=O)[O-])cc2)C(=O)N1` yielded an IC50 (Sortase A [1]) of 2000 nM and an MIC (Staphylococcus aureus [2]) of 128 µg/mL (≈ 446 µM).
With `O=C1NC(=O)C(=C/C=C/c2ccco2)C(=O)N1` the IC50 (Sortase A [1]) was 1400 nM and the MIC (Staphylococcus aureus [2]) was > 128 µg/mL.
In the case of `COc1ccc(/C=C/C=C2C(=O)N(C)C(=S)N(C)C2=O)cc1`, the IC50 (Sortase A [1]) is reported as > 50000 nM and the MIC (Staphylococcus aureus [2]) is reported as > 128 µg/mL.
In the case of `COc1ccc(C=C2C(=O)NC(=O)NC2=O)cc1`, the IC50 (Sortase A [1]) is reported as > 50000 nM and the MIC (Staphylococcus aureus [2]) is reported as > 128 µg/mL.
In the case of `COc1ccc(/C=C/C=C2C(=O)NC(=S)NC2=O)cc1`, the IC50 (Sortase A [1]) is reported as 2800 nM and the MIC (Staphylococcus aureus [2]) is reported as > 128 µg/mL.
With `O=C1NC(=O)C(=C/C=C/c2ccccc2)C(=O)N1` the IC50 (Sortase A [3]) was 8200 nM, the IC50 (Sortase A [1]) was 1100 nM and the MIC (Staphylococcus aureus [2]) was > 128 µg/mL.
For `COc1ccc(/C=C/C=C2C(=O)NC(=O)NC2=O)cc1`, the inhibition (Staphylococcus aureus [4]) was “Dose-Dependent Effect”, the inhibition (Staphylococcus aureus [5]) was “Dose-Dependent Effect” and the Activity [6] was “Non-Toxic”. For the same molecule, the Activity (Staphylococcus aureus [7]) was 40%, the Activity [8] was “Non-Toxic” and the Activity (Staphylococcus aureus [9]) was “Active”. For the same molecule, the Activity (Staphylococcus aureus [10]) was “Active”, the Activity (Staphylococcus aureus [11]) was <40% and the ΔTm (Streptococcus pyogenes [12]) was 9.3 °C. For the same molecule, the IC50 (Sortase A [3]) was 7400 nM, the IC50 [13] was 3400 nM and the Activity (Staphylococcus aureus [14]) was “inactive”. The inhibition (Procathepsin L) was “Active”, the Activity (Staphylococcus aureus [15]) was “Active” and the IC50 (Sortase A [1]) was 1000 nM. For the same molecule, the MIC (Staphylococcus aureus [2]) was > 128 µg/mL, the Activity (Staphylococcus aureus [16]) was “Active” and the inhibition [17] was “Tde”. For the same molecule, the ΔTm [18] was 4.5 °C, the Activity [19] was “Non-Toxic” and the inhibition (Cathepsin B) was “Active”. The Activity (Staphylococcus aureus [20]) was “inactive” and the inhibition (Streptococcus pyogenes [21]) was “Tde”.
With `COc1ccc(/C=C/C=C2C(=O)c3ccccc3C2=O)cc1` the IC50 (Sortase A [1]) was > 50000 nM and the MIC (Staphylococcus aureus [2]) was > 128 µg/mL.
